# Active and inactive are the calls of the source. No cut-off for these calls is given here.
# Experiments:
# [1] = Metabolic stability in mouse liver microsomes assessed as parent compound remaining at 1 uM and measured at 30 mins by LC-MS/MS analysis; assay type: ADME, Microsome; settings: read-out: Stability
# [2] = Drug distribution in C57BL/6 mouse skeletal muscle 10 mg/kg, po and measured at 2 hrs post dose by LC-MS/MS analysis; assay type: ADME, organism-based, Skeletal muscle tissue; settings: read-out: Ct
# [3] = Drug distribution in C57BL/6 mouse brain 10 mg/kg, po and measured at 1 hrs post dose by LC-MS/MS analysis; assay type: ADME, organism-based; settings: read-out: Ct
# [4] = Half life in C57BL/6 mouse at 3 mg/kg, iv or 10 mg/kg, po and measured up to 24 hrs by LC-MS/MS analysis; assay type: ADME, organism-based; settings: in vivo
# [5] = Drug distribution in C57BL/6 mouse brain 10 mg/kg, po and measured at 2 hrs post dose by LC-MS/MS analysis; assay type: ADME, organism-based; settings: read-out: Ct
# [6] = Drug distribution in C57BL/6 mouse plasma 10 mg/kg, po and measured at 1 hrs post dose by LC-MS/MS analysis; assay type: ADME, organism-based
# [7] = AUC in Wistar rat at 3 mg/kg, iv or 10 mg/kg, po and measured up to 24 hrs by LC-MS/MS analysis; assay type: ADME, organism-based; set-up: dose 3 mg/kg, time < 24 hrs, route iv; settings: in vivo
# [8] = Drug distribution in C57BL/6 mouse liver 10 mg/kg, po and measured at 1 hrs post dose by LC-MS/MS analysis; assay type: ADME, organism-based; settings: read-out: Ct
# [9] = Drug distribution in C57BL/6 mouse adipose tissue 10 mg/kg, po and measured at 2 hrs post dose by LC-MS/MS analysis; assay type: ADME, organism-based; settings: read-out: Ct
# [10] = Metabolic stability in human liver microsomes assessed as parent compound remaining at 1 uM and measured at 30 mins by LC-MS/MS analysis; assay type: ADME, Microsome; settings: read-out: Stability
# [11] = Oral bioavailability in Wistar rat at 10 mg/kg or 3 mg/kg, iv and measured up to 24 hrs by LC-MS/MS analysis; assay type: ADME, organism-based; settings: in vivo
# [12] = Drug distribution in C57BL/6 mouse skeletal muscle 10 mg/kg, po and measured at 1 hrs post dose by LC-MS/MS analysis; assay type: ADME, organism-based, Skeletal muscle tissue; settings: read-out: Ct
# [13] = AUC in C57BL/6 mouse at 3 mg/kg, iv or 10 mg/kg, po and measured up to 24 hrs by LC-MS/MS analysis; assay type: ADME, organism-based; set-up: time < 24 hrs, dose 3 mg/kg, route iv; settings: in vivo
# [14] = Cmax in C57BL/6 mouse at 3 mg/kg, iv or 10 mg/kg, po and measured up to 24 hrs by LC-MS/MS analysis; assay type: ADME, organism-based; set-up: dose 3 mg/kg, time < 24 hrs, route iv; settings: in vivo
# [15] = Volume of distribution at steady state in Wistar rat at 3 mg/kg, iv or 10 mg/kg, po and measured up to 24 hrs by LC-MS/MS analysis; assay type: ADME, organism-based; settings: in vivo, read-out: Vdss
# [16] = Drug distribution in C57BL/6 mouse liver 10 mg/kg, po and measured at 2 hrs post dose by LC-MS/MS analysis; assay type: ADME, organism-based; settings: read-out: Ct
# [17] = Drug distribution in C57BL/6 mouse adipose tissue 10 mg/kg, po and measured at 1 hrs post dose by LC-MS/MS analysis; assay type: ADME, organism-based; settings: read-out: Ct
# [18] = Metabolic stability in rat liver microsomes assessed as parent compound remaining at 1 uM and measured at 30 mins by LC-MS/MS analysis; assay type: ADME, Microsome; settings: read-out: Stability
# [19] = Drug distribution in C57BL/6 mouse plasma 10 mg/kg, po and measured at 8 hrs post dose by LC-MS/MS analysis; assay type: ADME, organism-based
# [20] = Apparent permeability across apical to basolateral side in MDCK cells at 2.5 uM for 90 mins; assay type: ADME, cell-based, Canis lupus familiaris; settings: dog
# [21] = Oral bioavailability in C57BL/6 mouse 10 mg/kg or 3 mg/kg, iv and measured up to 24 hrs by LC-MS/MS analysis; assay type: ADME, organism-based; settings: in vivo
# [22] = Half life in Wistar rat at 3 mg/kg, iv or 10 mg/kg, po and measured up to 24 hrs by LC-MS/MS analysis; assay type: ADME, organism-based; settings: in vivo
# [23] = Tmax in C57BL/6 mouse at 3 mg/kg, iv or 10 mg/kg, po and measured up to 24 hrs by LC-MS/MS analysis; assay type: ADME, organism-based; settings: in vivo
# [24] = Cmax in Wistar rat at 3 mg/kg, iv or 10 mg/kg, po and measured up to 24 hrs by LC-MS/MS analysis; assay type: ADME, organism-based; set-up: dose 3 mg/kg, time < 24 hrs, route iv; settings: in vivo
# [25] = Drug distribution in C57BL/6 mouse liver 10 mg/kg, po and measured at 8 hrs post dose by LC-MS/MS analysis; assay type: ADME, organism-based; settings: read-out: Ct
# [26] = Plasma protein binding in rat; assay type: ADME, cell-free; settings: read-out: PPB
# [27] = Clearance in Wistar rat at 3 mg/kg, iv or 10 mg/kg, po and measured up to 24 hrs by LC-MS/MS analysis; assay type: ADME, organism-based; settings: in vivo
# [28] = Tmax in Wistar rat at 3 mg/kg, iv or 10 mg/kg, po and measured up to 24 hrs by LC-MS/MS analysis; assay type: ADME, organism-based; settings: in vivo
# [29] = Volume of distribution at steady state in C57BL/6 mouse at 3 mg/kg, iv or 10 mg/kg, po and measured up to 24 hrs by LC-MS/MS analysis; assay type: ADME, organism-based; settings: in vivo, read-out: Vdss
# [30] = Clearance in C57BL/6 mouse at 3 mg/kg, iv or 10 mg/kg, po and measured up to 24 hrs by LC-MS/MS analysis; assay type: ADME, organism-based; settings: in vivo
# hERG (KCNH2) = hERG (KCNH2) (Homo sapiens, UniProt Q12809); experiment: Displacement of [3H]astemizole from human ERG expressed in HEK293 cell membrane at 30 uM for 2 hrs by Radiometric displacement assay; assay type: toxicity; settings: HEK293 cell membranes that express hERG, probe [3H]astemizole
# Chain of hERG (KCNH2) (Q12809 whole entry): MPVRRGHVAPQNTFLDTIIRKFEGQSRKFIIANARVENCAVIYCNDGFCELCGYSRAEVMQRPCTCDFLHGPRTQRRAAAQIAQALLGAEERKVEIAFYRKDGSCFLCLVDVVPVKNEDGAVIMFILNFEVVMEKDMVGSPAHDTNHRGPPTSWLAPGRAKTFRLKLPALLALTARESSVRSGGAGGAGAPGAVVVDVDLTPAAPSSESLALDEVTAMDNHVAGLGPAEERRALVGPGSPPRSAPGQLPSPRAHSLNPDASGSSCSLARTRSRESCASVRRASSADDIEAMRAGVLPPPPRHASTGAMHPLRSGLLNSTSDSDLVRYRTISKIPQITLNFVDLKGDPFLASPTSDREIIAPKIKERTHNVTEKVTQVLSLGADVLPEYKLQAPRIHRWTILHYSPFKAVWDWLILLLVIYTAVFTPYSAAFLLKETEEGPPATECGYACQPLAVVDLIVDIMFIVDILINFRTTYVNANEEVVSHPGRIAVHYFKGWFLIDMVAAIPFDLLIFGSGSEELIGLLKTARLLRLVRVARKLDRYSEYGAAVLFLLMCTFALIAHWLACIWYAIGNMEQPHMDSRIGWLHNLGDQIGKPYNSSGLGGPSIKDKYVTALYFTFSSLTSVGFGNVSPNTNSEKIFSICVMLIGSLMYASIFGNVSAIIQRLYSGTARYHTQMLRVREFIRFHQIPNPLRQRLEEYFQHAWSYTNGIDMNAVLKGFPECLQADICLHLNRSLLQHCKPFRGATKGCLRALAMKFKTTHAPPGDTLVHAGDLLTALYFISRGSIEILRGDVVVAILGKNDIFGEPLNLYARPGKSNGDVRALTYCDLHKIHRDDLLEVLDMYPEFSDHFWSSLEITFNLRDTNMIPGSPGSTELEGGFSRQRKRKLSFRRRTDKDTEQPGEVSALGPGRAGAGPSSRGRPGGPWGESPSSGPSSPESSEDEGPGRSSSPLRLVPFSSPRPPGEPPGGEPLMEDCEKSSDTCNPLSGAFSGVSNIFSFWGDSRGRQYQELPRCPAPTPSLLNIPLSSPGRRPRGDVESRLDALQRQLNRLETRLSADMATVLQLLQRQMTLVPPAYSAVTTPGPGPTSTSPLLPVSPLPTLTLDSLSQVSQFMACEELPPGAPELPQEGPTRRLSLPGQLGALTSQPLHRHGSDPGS
# [31] = Drug distribution in C57BL/6 mouse skeletal muscle 10 mg/kg, po and measured at 8 hrs post dose by LC-MS/MS analysis; assay type: ADME, organism-based, Skeletal muscle tissue; settings: read-out: Ct
# [32] = Plasma protein binding in mouse; assay type: ADME, cell-free; settings: read-out: PPB (converted)
# [33] = Drug distribution in C57BL/6 mouse adipose tissue 10 mg/kg, po and measured at 8 hrs post dose by LC-MS/MS analysis; assay type: ADME, organism-based; settings: read-out: Ct
# [34] = Drug distribution in C57BL/6 mouse plasma 10 mg/kg, po and measured at 2 hrs post dose by LC-MS/MS analysis; assay type: ADME, organism-based
# [35] = target: T1, Diacylglycerol O-acyltransferase 1 (Homo sapiens, UniProt O75907); experiment: Inhibition of human DGAT1 in serum starved HEK293 cells assessed as inhibition of triglyceride synthesis incubated for 20 mins followed by 13C-addition of 13C-oleic acid pre-complexed with BSA for 120 mins by LC-MS-based mass spectrophotometric analysis; assay type: cell-based
# T1 sequence (O75907 whole entry): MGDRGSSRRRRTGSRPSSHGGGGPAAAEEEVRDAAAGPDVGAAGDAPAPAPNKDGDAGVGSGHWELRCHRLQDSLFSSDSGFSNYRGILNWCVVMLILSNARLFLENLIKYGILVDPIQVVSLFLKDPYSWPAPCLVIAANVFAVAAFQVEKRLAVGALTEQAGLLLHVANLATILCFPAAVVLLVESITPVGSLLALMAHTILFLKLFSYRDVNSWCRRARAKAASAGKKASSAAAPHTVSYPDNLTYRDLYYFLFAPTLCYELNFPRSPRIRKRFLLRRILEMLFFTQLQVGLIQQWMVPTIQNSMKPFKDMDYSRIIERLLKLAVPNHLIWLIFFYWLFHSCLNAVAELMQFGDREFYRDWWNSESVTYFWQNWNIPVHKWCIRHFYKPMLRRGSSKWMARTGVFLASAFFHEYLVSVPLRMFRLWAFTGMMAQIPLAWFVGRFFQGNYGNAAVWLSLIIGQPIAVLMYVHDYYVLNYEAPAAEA
# [36] = Inhibition of human […] in HepG2 cells assessed as inhibition of triglyceride synthesis at 100 nM incubated for 1 hrs followed by 13C-addition of 13C-oleic acid pre-complexed with fatty acid free BSA for 6 hrs by LC/MS/MS analysis; settings: time 7.0 hrs
# [37] = Inhibition of human […] in HepG2 cells assessed as inhibition of triglyceride synthesis at 1 uM incubated for 1 hrs followed by 13C-addition of 13C-oleic acid pre-complexed with fatty acid free BSA for 6 hrs by LC/MS/MS analysis; settings: time 7.0 hrs
# [38] = Inhibition of human […] in HepG2 cells assessed as inhibition of triglyceride synthesis at 300 nM incubated for 1 hrs followed by 13C-addition of 13C-oleic acid pre-complexed with fatty acid free BSA for 6 hrs by LC/MS/MS analysis; settings: time 7.0 hrs
# [39] = target: 2-acylglycerol O-acyltransferase 2 (Homo sapiens) (UniProt Q3SYC2); experiment: Inhibition of recombinant human MGAT2 expressed in Sf9 cell membrane assessed as inhibition of triglyceride synthesis at 10 uM for 1 hr by LC-MS-based mass spectrophotometric analysis
# Chain of 2-acylglycerol O-acyltransferase 2 (Homo sapiens) (Q3SYC2 whole entry, looked up): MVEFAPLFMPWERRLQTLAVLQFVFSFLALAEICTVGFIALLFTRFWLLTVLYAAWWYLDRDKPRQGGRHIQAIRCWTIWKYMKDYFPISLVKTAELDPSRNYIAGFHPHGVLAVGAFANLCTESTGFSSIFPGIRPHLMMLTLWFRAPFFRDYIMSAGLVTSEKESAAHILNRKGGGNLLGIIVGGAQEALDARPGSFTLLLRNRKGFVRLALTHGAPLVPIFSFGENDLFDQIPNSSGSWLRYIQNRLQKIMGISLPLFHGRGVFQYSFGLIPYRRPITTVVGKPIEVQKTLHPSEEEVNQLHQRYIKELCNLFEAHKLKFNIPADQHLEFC
# [40] = target: T1, Diacylglycerol O-acyltransferase 1; experiment: Inhibition of recombinant human DGAT1 expressed in Sf9 cell membrane assessed as inhibition of triglyceride synthesis incubated for 1 hrs by LC-MS-based mass spectrophotometric analysis; assay type: cell membranes
# Mus musculus [41] = experiment: In vivo inhibition of DGAT1 in C57BL/6 mouse model of acute lipid challenge assessed as reduction in AUC plasma triglyceride level at 3 to 10 mg/kg, po as corn oil bolus by Oral lipid tolerance test relative to control; assay type: functional, organism-based; settings: dose 3-10 mg/kg
# Mus musculus [42] = experiment: In vivo inhibition of DGAT1 in C57BL/6 mouse model of acute lipid challenge assessed as reduction in chylomicron derived plasma triglyceride excursion at 3 to 10 mg/kg, po as corn oil bolus by Oral lipid tolerance test relative to control; assay type: functional, organism-based; settings: dose 3-10 mg/kg
smiles,measurement,setting,value
O=C(O)CC1CCC2(CC1)CCC(c1ccc(NC(=O)c3nnc(Nc4ccc(F)c(F)c4)o3)cn1)CC2 (centres undefined) [listing 1 of 2 here],"remaining at 0.5 h, 1 µM",[1],88%
same,concentration at 2 h,[2],290 nM
same,concentration at 1 h,[3],20 nM
same,half-life,[4],2.1 h
same,concentration at 2 h,[5],60 nM
same,concentration at 1 h,[6],2760 nM
same,AUC at 24 h,[7],23.7 µM·h
same,concentration at 1 h,[8],74000 nM
same,concentration at 2 h,[9],470 nM
same,"remaining at 0.5 h, 1 µM",[10],100%
same,bioavailability,[11],9%
same,concentration at 1 h,[12],520 nM
same,AUC at 24 h,[13],4.4 µM·h
same,Cmax,[14],2600 nM
same,Vd,[15],0.5 L/kg
same,concentration at 2 h,[16],73000 nM
same,concentration at 1 h,[17],740 nM
same,"remaining at 0.5 h, 1 µM",[18],71%
same,concentration at 8 h,[19],80 nM
same,"Papp A→B at 1.5 h, 2.5 µM",[20],4.7 ×10⁻⁶ cm/s
same,bioavailability,[21],53%
same,half-life,[22],6.4 h
same,Tmax,[23],0.5 h
same,Cmax,[24],3800 nM
same,concentration at 8 h,[25],28000 nM
same,fraction unbound,[26],< 0.01
same,clearance,[27],1.2 mL/min/kg
same,Tmax,[28],1.3 h
same,Vd,[29],1.8 L/kg
same,clearance,[30],21 mL/min/kg
same,"inhibition at 2 h, 30 µM",hERG (KCNH2),26%
same,concentration at 8 h,[31],70 nM
same,fraction unbound,[32],0.03
same,concentration at 8 h,[33],110 nM
same,concentration at 2 h,[34],1860 nM
same,IC50,[35],16 nM
O=C(O)CC1CCC2(CC1)CCC(c1ccc(NC(=O)c3nnc(Nc4ccc(F)c(F)c4)o3)cn1)CC2 (centres undefined) [listing 2 of 2 here],inhibition,[36],55%
same,inhibition,[37],90%
same,inhibition,[38],82%
same,inhibition,[39],16%
O=C(O)CC1CCC2(CC1)CCC(c1ccc(NC(=O)c3nnc(Nc4ccc(F)c(F)c4)o3)cc1)CC2 (stereo in doubt; 8b),IC50,[40],75 nM
same,IC50,[35],23 nM
O=C(O)CC1CCC2(CC1)CCN(c1ccc(NC(=O)c3nnc(Nc4ccc(F)c(F)c4)o3)cn1)CC2,inhibition,Mus musculus [41],Active
same,inhibition,Mus musculus [42],Active

# Reference: ChEMBL document CHEMBL5143597, “Design and synthesis of novel spirocyclic carboxylic acids as potent and orally bioavailable DGAT1 inhibitors and their biological evaluation” (Bioorg Med Chem Lett, 2022)
